Source: BindingDB's records for doi:10.1016/j.bmcl.2009.04.147 (Banyu Pharmaceutical, 2009)

target: Melanin-concentrating hormone receptor 1 (Homo sapiens, UniProt Q99705); assay: Radioligand Binding Assay (IC50) and Functional Assay (EC50/IC50); conditions: pH 7.4; 22 °C
Method: Compounds were evaluated for their binding affinity to the membranes of CHO-K1 cells expressing human MCH1R (hMCH1R) in a competition binding assay with [125I]-MCH as the radioligand. After incubation, the membranes were filtrated onto GF/C filter plates and dried. The radioactivity was counted using a microplate scintillation counter (TopCount, PerkinElmer). Non-specific binding was determined by including 1 uM unlabeled MCH in the binding reaction. Antagonistic activity (EC50/IC50) was estimated by the inhibitory effect of compounds on intracellular calcium mobilization induced by MCH using a FLIPR in CHO-K1 cells expressing human MCH1R. The cells were treated with the test compounds for 5 min before addition of MCH.

Sequence of Melanin-concentrating hormone receptor 1 (Q99705 as listed by the source): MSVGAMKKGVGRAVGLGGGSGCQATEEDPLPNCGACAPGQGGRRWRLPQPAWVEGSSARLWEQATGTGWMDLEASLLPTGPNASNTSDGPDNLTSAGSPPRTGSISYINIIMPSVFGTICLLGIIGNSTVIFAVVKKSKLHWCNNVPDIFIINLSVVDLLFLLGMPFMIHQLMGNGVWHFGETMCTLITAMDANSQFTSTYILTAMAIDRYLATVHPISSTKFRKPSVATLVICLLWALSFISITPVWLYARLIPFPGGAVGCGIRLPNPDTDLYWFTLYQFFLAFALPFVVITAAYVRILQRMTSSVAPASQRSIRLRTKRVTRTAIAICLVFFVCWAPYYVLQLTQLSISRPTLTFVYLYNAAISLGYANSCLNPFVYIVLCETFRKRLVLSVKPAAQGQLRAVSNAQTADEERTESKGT

Structure (SMILES)	IC50
CC(C)N(C)c1nc2ccc(NC(=O)CCc3ccc(C(F)(F)F)cc3)cc2[nH]1 [2-aminobenzimidazole-based compound, 8]	21 nM
CN(c1nc2ccc(NC(=O)CCc3ccc(C(F)(F)F)cc3)cc2[nH]1)C1CCCC1 [2-aminobenzimidazole-based compound, 12]	22 nM
CN(c1nc2ccc(NC(=O)CCc3ccc(C(F)(F)F)cc3)cc2[nH]1)C1CCCCC1 [2-aminobenzimidazole-based compound, 13]	27 nM
